From patent publication US9302999B2, “Substituted triazoles as herbicides” (E. I. DU PONT DE NEMOURS AND COMPANY, priority 2012, dated 2016)

How the values were obtained:
Assay type in all cases: in vivo
Oilseed Rape = assay: Test C pre-/postemergence: oilseed rape
Text: Seeds of plant species selected from blackgrass (Alopecurus myosuroides), bromegrass, downy (downy bromegrass, Bromus tectorum), foxtail, green (green foxtail, Setaria viridis), ryegrass, Italian (Italian ryegrass, Lolium multiflorum), winter wheat (Triticum aestivum), wild oat (Avena fatua), galium (catchweed bedstraw, Galium aparine), bermudagrass (Cynodon dactylon), surinam grass (Brachiaria decumbens), cocklebur (common cocklebur, Xanthium strumarium), corn (Zea mays), large crabgrass (Digitaria sanguinalis), woolly cupgrass (Eriochloa villosa), foxtail, giant (giant foxtail, Setaria faberii), goosegrass (Eleusine indica), johnsongrass (Sorghum halepense), kochia (Kochia scoparia), lambsquarters (Chenopodium album), morningglory (Ipomoea coccinea), nightshade (eastern black nightshade, Solanum ptycanthum), nutsedge, yellow (yellow nutsedge, Cyperus esculentus), pigweed (Amaranthus retroflexus), ragweed (common ragweed, Ambrosia elation), soybean (Glycine max), common (oilseed) sunflower (Helianthus annuus), Russian thistle (Salsola kali) and velvetleaf (Abutilon theophrasti) were planted into a blend of loam soil and sand and treated preemergence with test chemicals formulated in a non-phytotoxic solvent mixture which included a surfactant.
At the same time, plants selected from these crop and weed species and also barley (winter barley, Hordeum vulgare), canarygrass (Phalaris minor), chickweed (common chickweed, Stellaria media) windgrass (Apera spica-venti) and deadnettle (henbit deadnettle, Lamium amplexicaule) were planted in pots containing Redi-Earth® planting medium (Scotts Company, 14111 Scottslawn Road, Marysville, Ohio 43041) comprising spaghnum peat moss, vermiculite, wetting agent and starter nutrients and treated with postemergence applications of test chemicals formulated in the same manner. Plants ranged in height from 2 to 18 cm (1- to 4-leaf stage) for postemergence treatments.
Treated plants and controls were maintained in a greenhouse for 13 to 15 days, after which time all species were compared to controls and visually evaluated. Plant response ratings, summarized in Table C, are based on a scale of 0 to 100 where 0 is no effect and 100 is complete control. A dash (-) response means no test result.

[1] = system: galium (catchweed bedstraw, Galium aparine); assay: Test D pre-/postemergence: galium; conditions: Postemergence; for Plant response rating, Galium: 16 g ai/ha, scale 0 to 100
Outline: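 Pre- and postemergence herbicide screen. Soil for pre: silt loam; post medium: peat moss, vermiculite, wetting agent, starter nutrients. Plant stage at post: 1- to 4-leaf. Readout: visual % control, 14–21 days.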

[2] = system: beggarticks (hairy beggarticks, Bidens pilosa); assay: Test F pre-/postemergence: beggarticks
Text: Seeds of plant species selected from corn (Zea mays), soybean (Glycine max), velvetleaf (Abutilon theophrasti), lambsquarters (Chenopodium album), poinsettia, wild (wild poinsettia, Euphorbia heterophylla), pigweed, palmer (palmer pigweed, Amaranthus palmeri), waterhemp (common waterhemp, Amaranthus rudis), surinam grass (Brachiaria decumbens), crabgrass, Brazil (Brazilian crabgrass, Digitaria horizontalis), panicum, fall (fall panicum Panicum dichotomiflorum), crabgrass, large (large crabgrass, Digitaria sanguinalis), foxtail, giant (giant foxtail, Setaria faberii), foxtail, green (green foxtail Setaria viridis), goosegrass (Eleusine indica), ragweed (common ragweed, Ambrosia elatior), barnyardgrass (Echinochloa crus-galli), sandbur (southern sandbur, Cenchrus echinatus), arrowleaf sida (Sida rhombifolia), ryegrass, Italian (Italian ryegrass, Lolium multiflorum), dayflower, VA (Virginia (VA) dayflower, Commelina virginica), field bindweed (Convolvulus arvensis), cocklebur (common cocklebur, Xanthium strumarium), morningglory (Ipomoea coccinea), nightshade (eastern black nightshade, Solanum ptycanthum), kochia (Kochia scoparia), nutsedge, yellow (yellow nutsedge, Cyperus esculentus), johnsongrass (Sorghum halepense), smartweed (ladysthumb smartweed, Polygonum persicaria), and beggarticks (hairy beggarticks, Bidens pilosa), were planted into a silt loam soil and treated preemergence with test chemicals formulated in a non-phytotoxic solvent mixture which included a surfactant. At the same time, plants selected from these crop and weed species and also pigweed (Amaranthus retroflexus), waterhemp_RES1 (ALS/Triazine resistant common waterhemp, Amaranthus rudis) and waterhemp_RES2 (ALS/HPPD resistant common waterhemp, Amaranthus rudis) were planted in pots containing a planting medium comprising spaghnum peat moss, vermiculite, wetting agent and starter nutrients treated with postemergence applications of some of the test chemicals formulated in the same manner. Plants ranged in height from 2 to 18 cm for postemergence treatments (1- to 4-leaf stage).
Treated plants and controls were maintained in a greenhouse for 14 to 21 days, after which time all species were compared to controls and visually evaluated. Plant response ratings, summarized in Table E, are based on a scale of 0 to 100 where 0 is no effect and 100 is complete control. A dash (-) response means no test result.

[3] = system: poinsettia, wild (wild poinsettia, Euphorbia heterophylla); assay: Test F pre-/postemergence: poinsettia, wild
Outline: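 Preemergence treatment of seeds sown in silt loam soil, and postemergence treatment of plants 2–18 cm tall (1- to 4-leaf stage), with compounds in non-phytotoxic solvent plus surfactant. Greenhouse 14–21 days, then visual rating versus controls on 0–100 scale (100 = complete control).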

[4] = Postemergence, 31 g ai/ha, scale 0 to 100 (0 no effect, 100 complete control)
[5] = Preemergence, 250 g ai/ha, scale 0 to 100, 0 no effect, 100 complete control
[6] = 31 g ai/ha, scale 0 to 100 (0 no effect, 100 complete control)
[7] = 62 g ai/ha, scale 0 to 100 (0 no effect, 100 complete control)
[8] = 125 g ai/ha, scale 0 to 100, 0 no effect, 100 complete control
[9] = Preemergence, 16 g ai/ha, scale 0 to 100, 0 no effect, 100 complete control
[10] = Preemergence, 31 g ai/ha, scale 0 to 100, 0 no effect, 100 complete control
[11] = Preemergence, 62 g ai/ha, scale 0 to 100
[12] = Preemergence, 125 g ai/ha, scale 0 to 100
[13] = Preemergence, 250 g ai/ha, scale 0 to 100
[14] = Postemergence, 250 g ai/ha, scale 0 to 100
[15] = Postemergence, 31 g ai/ha, scale 0 to 100
[16] = Postemergence, 125 g ai/ha, scale 0 to 100
[17] = Postemergence, 16 g ai/ha, scale 0 to 100
[18] = Postemergence, 62 g ai/ha, scale 0 to 100

## CCc1nn(-c2ccc(C(F)(F)F)c(F)c2)nc1Oc1ccnc(C(F)(F)F)c1 [Compound 183]
Oilseed Rape; [4]
  Plant response rating, Oilseed Rape: 20
Oilseed Rape; [5]
  Plant response rating, Oilseed Rape: 100

## Cc1nn(-c2ccc(F)c(C(F)(F)F)c2)nc1Cc1ccnc(C(F)(F)F)c1 [Compound 156]
[1]; [6]
  Plant response rating: Galium: 75
[1]; [7]
  Plant response rating: Galium: 75
[1]; [8]
  Plant response rating: Galium: 80
[1]
  Plant response rating, Galium: 70
Oilseed Rape; [5]
  Plant response rating, Oilseed Rape: 98

## CCCc1nn(-c2ccc(C(F)(F)F)cc2)nc1Oc1ccnc(C(F)(F)F)c1 [Compound 170]
Oilseed Rape; [4]
  Plant response rating, Oilseed Rape: 30
Oilseed Rape; [5]
  Plant response rating, Oilseed Rape: 100

## CCc1nn(-c2ccc(F)c(F)c2)nc1Oc1ccnc(C(F)(F)F)c1 [Compound 171]
[2]; [9]
  Plant response rating, Beggarticks: 0
[2]; [10]
  Plant response rating, Beggarticks: 0
[2]; [11]
  Plant response rating, Beggarticks: 0
[2]; [12]
  Plant response rating, Beggarticks: 0
[2]; [13]
  Plant response rating, Beggarticks: 0
Oilseed Rape; [4]
  Plant response rating, Oilseed Rape: 5
Oilseed Rape; [5]
  Plant response rating, Oilseed Rape: 90
[3]; [9]
  Plant response rating, Poinsettia, Wild: 0
[3]; [10]
  Plant response rating, Poinsettia, Wild: 0
[3]; [12]
  Plant response rating, Poinsettia, Wild: 10
[3]; [13]
  Plant response rating, Poinsettia, Wild: 10

## CCc1nn(-c2ccc(C(F)(F)F)cc2)nc1Cc1ccnc(C(F)(F)F)c1 [Compound 155]
[1]; [6]
  Plant response rating: Galium: 70
[1]; [7]
  Plant response rating: Galium: 70
[1]; [8]
  Plant response rating: Galium: 75
[1]
  Plant response rating, Galium: 65
[2]; [11]
  Plant response rating, Beggarticks: 40
[2]; [12]
  Plant response rating, Beggarticks: 70
[2]; [13]
  Plant response rating, Beggarticks: 80
Oilseed Rape; [5]
  Plant response rating, Oilseed Rape: 100
[3]; [12]
  Plant response rating, Poinsettia, Wild: 80
[3]; [13]
  Plant response rating, Poinsettia, Wild: 100

## CCOCc1nn(-c2ccc(F)cc2)nc1Oc1ccnc(C(F)(F)F)c1 [Compound 163]
Oilseed Rape; [5]
  Plant response rating, Oilseed Rape: 95

## CCCc1nn(-c2ccc(F)c(F)c2)nc1Oc1ccnc(C(F)(F)F)c1 [Compound 172]
[2]; [14]
  Plant response rating, Beggarticks: 60
[2]; [15]
  Plant response rating, Beggarticks: 40
[2]; [16]
  Plant response rating, Beggarticks: 50
[2]; [10]
  Plant response rating, Beggarticks: 15
[2]; [12]
  Plant response rating, Beggarticks: 25
[2]; [13]
  Plant response rating, Beggarticks: 25
Oilseed Rape; [4]
  Plant response rating, Oilseed Rape: 50
Oilseed Rape; [5]
  Plant response rating, Oilseed Rape: 100
[3]; [14]
  Plant response rating, Poinsettia, Wild: 100
[3]; [15]
  Plant response rating, Poinsettia, Wild: 80
[3]; [16]
  Plant response rating, Poinsettia, Wild: 100
[3]; [10]
  Plant response rating, Poinsettia, Wild: 20
[3]; [12]
  Plant response rating, Poinsettia, Wild: 50
[3]; [13]
  Plant response rating, Poinsettia, Wild: 98

## CCc1nn(-c2ccc(F)cc2)nc1Cc1ccnc(C(F)(F)F)c1 [Compound 154]
[2]; [9]
  Plant response rating, Beggarticks: 0
[2]; [10]
  Plant response rating, Beggarticks: 0
[2]; [11]
  Plant response rating, Beggarticks: 0
[2]; [12]
  Plant response rating, Beggarticks: 0
[2]; [13]
  Plant response rating, Beggarticks: 15
Oilseed Rape; [5]
  Plant response rating, Oilseed Rape: 100
[3]; [9]
  Plant response rating, Poinsettia, Wild: 0
[3]; [10]
  Plant response rating, Poinsettia, Wild: 0
[3]; [12]
  Plant response rating, Poinsettia, Wild: 25
[3]; [13]
  Plant response rating, Poinsettia, Wild: 85

## CCOc1nn(-c2ccc(C(F)(F)F)cc2)nc1Cc1ccnc(C(F)(F)F)c1 [Compound 164, 4-[[5-ethoxy-2-[4-(trifluoromethyl)phenyl]-2H-1,2,3-triazol-4-yl]methyl]-2-(trifluoromethyl)pyridine]
Oilseed Rape; [5]
  Plant response rating, Oilseed Rape: 30

## CCCc1nn(-c2ccc(F)cc2F)nc1Oc1ccnc(C(F)(F)F)c1 [Compound 179]
Oilseed Rape; [4]
  Plant response rating, Oilseed Rape: 30
Oilseed Rape; [5]
  Plant response rating, Oilseed Rape: 100

## CCOc1nn(-c2ccc(Cl)cc2)nc1Cc1ccnc(C(F)(F)F)c1 [Compound 188]
Oilseed Rape; [4]
  Plant response rating, Oilseed Rape: 40
Oilseed Rape; [5]
  Plant response rating, Oilseed Rape: 100

## CCc1nn(-c2ccc(C(F)(F)F)cc2)nc1Oc1ccnc(C(F)(F)F)c1 [Compound 169]
[2]; [14]
  Plant response rating, Beggarticks: 40
[2]; [17]
  Plant response rating, Beggarticks: 25
[2]; [15]
  Plant response rating, Beggarticks: 25
[2]; [18]
  Plant response rating, Beggarticks: 25
[2]; [16]
  Plant response rating, Beggarticks: 30
[2]; [9]
  Plant response rating, Beggarticks: 0
[2]; [10]
  Plant response rating, Beggarticks: 0
[2]; [11]
  Plant response rating, Beggarticks: 0
[2]; [12]
  Plant response rating, Beggarticks: 5
[2]; [13]
  Plant response rating, Beggarticks: 5
Oilseed Rape; [4]
  Plant response rating, Oilseed Rape: 30
Oilseed Rape; [5]
  Plant response rating, Oilseed Rape: 100
[3]; [14]
  Plant response rating, Poinsettia, Wild: 85
[3]; [17]
  Plant response rating, Poinsettia, Wild: 50
[3]; [15]
  Plant response rating, Poinsettia, Wild: 60
[3]; [18]
  Plant response rating, Poinsettia, Wild: 60
[3]; [16]
  Plant response rating, Poinsettia, Wild: 70
[3]; [9]
  Plant response rating, Poinsettia, Wild: 0
[3]; [10]
  Plant response rating, Poinsettia, Wild: 0
[3]; [12]
  Plant response rating, Poinsettia, Wild: 40
[3]; [13]
  Plant response rating, Poinsettia, Wild: 98

## CCCc1nn(-c2ccc(F)cc2)nc1Oc1ccnc(C(F)(F)F)c1 [Compound 168]
Oilseed Rape; [4]
  Plant response rating, Oilseed Rape: 40
Oilseed Rape; [5]
  Plant response rating, Oilseed Rape: 100

## FCc1nn(-c2ccc(F)cc2)nc1Oc1ccnc(C(F)(F)F)c1 [Compound 160]
Oilseed Rape; Postemergence, 16 g ai/ha, scale 0 to 100, 0 no effect, 100 complete control
  Plant response rating, Oilseed Rape: 85
